This note sets out measurements from patent US20240287082A1, “NEW BENZODIAZEPINE DERIVATIVES AS GABA A GAMMA1 PAM” (Hoffmann-La Roche Inc., priority 2021, published 2024).

For orientation: Ki means the dissociation constant of the complex between target and ligand, obtained from inhibition or displacement.

Test [1] has as its target human GABAA α5β2γ1 receptor (Homo sapiens (Human), UniProt P31644+Q8N1C3). In words: Radioligand binding assay, competition for [3H]RO7239181, γ1-containing GABAA subtype α5β2γ1.
In test [2] the target is human GABAA α1β3γ2 receptor (Homo sapiens (Human), UniProt P14867+P18507). The test is described as follows: Radioligand binding assay, competition for [3H]Flumazenil, γ2-containing GABAA subtype α1β3γ2.
For test [3], the target named is human GABAA α2β2γ1 receptor (Homo sapiens (Human), UniProt P47869+Q8N1C3). In words: Radioligand binding assay, competition for [3H]RO7239181, γ1-containing GABAA subtype α2β2γ1. Particulars: for γ2/γ1 Selectivity Ratio: Ki α1β3γ2 (nM)/Ki α2β2γ1 (nM); for LogSel: Log[Ki α1β3γ2 (nM)/Ki α2β2γ1 (nM)].
[4] abbreviates: read-out: Ki h-GABAA α2β2γ1, Table 2, membranes of HEK293F cells, [3H]RO7239181.

Where two headings read alike, the source gives them in different places.

With `CCc1cn2c(nc1=O)[C@H](C)N=C(c1c(F)cccc1F)c1c-2ccc(C(F)(F)F)c1Cl` [Example 11, (5S)-8-chloro-7-(2,6-difluorophenyl)-2-ethyl-5-methyl-9-(trifluoromethyl)-5H-pyrimido[1,2-a][1,4]benzodiazepin-3-one], the Ki in test [1] came out at 0.0041 µM; in test [2] it was 6.09 µM; in test [3], 0.0401 µM; in test [3] (setting [4]), 0.0401 µM. For the same molecule, in test [3], the “γ2/γ1 Selectivity Ratio” value is recorded as 151.9. In addition, in test [3], the LogSel was found to be 2.18.

Consider `O=c1ccn2c(n1)CN=C(c1ccccc1F)c1c-2ccc(Cl)c1Cl` [Example 1, 8,9-dichloro-7-(2-fluorophenyl)-5H-pyrimido[1,2-a][1,4]benzodiazepin-3-one], for which the Ki was found to be 0.0038 µM in test [1], 0.716 µM in test [2], 0.0579 µM in test [3] and 0.0579 µM in test [3] (setting [4]). In addition, the “γ2/γ1 Selectivity Ratio” value in test [3] is on record as 12.4. Besides, the LogSel in test [3] is given as 1.09.

`C[C@@H]1N=C(c2c(F)cccc2F)c2c(ccc(Br)c2Cl)-n2ccc(=O)nc21` [Example 13, (5S)-9-bromo-8-chloro-7-(2,6-difluorophenyl)-5-methyl-5H-pyrimido[1,2-a][1,4]benzodiazepin-3-one]: the Ki worked out at 0.001 µM in test [1], 0.607 µM in test [2], 0.0114 µM in test [3] and 0.0114 µM in test [3] (setting [4]). For the same molecule, the “γ2/γ1 Selectivity Ratio” value in test [3] is on record as 53.3. The LogSel in test [3] was determined as 1.73.

For the molecule `Cc1cn2c(nc1=O)[C@H](C)N=C(c1c(F)cccc1F)c1c-2ccc(C(F)(F)F)c1Cl` [Example 9, (5S)-8-chloro-7-(2,6-difluorophenyl)-2,5-dimethyl-9-(trifluoromethyl)-5H-pyrimido[1,2-a][1,4]benzodiazepin-3-one], the Ki in test [1] was determined as 0.0031 µM; in test [2] it was 5.95 µM; in test [3] it was 0.0284 µM; in test [3] (setting [4]) it was 0.0284 µM. Besides, the “γ2/γ1 Selectivity Ratio” value in test [3] was determined as 209.4. The same molecule had a LogSel in test [3] of 2.32.

As for `C[C@@H]1N=C(c2c(F)cccc2F)c2c(ccc(C(F)(F)F)c2Cl)-n2ccc(=O)nc21` [Example 10, (5S)-8-chloro-7-(2,6-difluorophenyl)-5-methyl-9-(trifluoromethyl)-5H-pyrimido[1,2-a][1,4]benzodiazepin-3-one], the Ki in test [1] is 0.003 µM; in test [2], 6.12 µM; in test [3], 0.0546 µM; in test [3] (setting [4]), 0.0546 µM. The “γ2/γ1 Selectivity Ratio” value in test [3] is recorded as 112.1. In addition, the LogSel in test [3] worked out at 2.05.

For `O=c1ccn2c(n1)CN=C(c1ncccc1F)c1c-2ccc(Cl)c1Cl` [Example 3, 8,9-dichloro-7-(3-fluoro-2-pyridyl)-5H-pyrimido[1,2-a][1,4]benzodiazepin-3-one], the Ki in test [1] is 0.0103 µM; in test [2], 2.19 µM; in test [3], 0.112 µM; in test [3] (setting [4]), 0.112 µM. Moreover, the “γ2/γ1 Selectivity Ratio” value in test [3] stood at 19.6. In addition, the LogSel in test [3] turned out to be 1.29.

As for `C[C@@H]1N=C(c2c(F)cccc2F)c2c(ccc(C(F)(F)F)c2Cl)-n2cc(C(=O)NC3CC3)c(=O)nc21` [Example 28, (5S)-8-chloro-N-cyclopropyl-7-(2,6-difluorophenyl)-5-methyl-3-oxo-9-(trifluoromethyl)-5H-pyrimido[1,2-a][1,4]benzodiazepine-2-carboxamide], the Ki in test [1] (membranes of HEK293F cells, [3H]RO7239181 1.5 nM, mean of two determinations, read-out: Ki h-GABAA α5β2γ1) turned out to be 0.0074 µM; in test [2] (HEK293F cell membranes, [3H]Flumazenil 1 nM, mean of two determinations, read-out: Ki h-GABAA α1β3γ2), 11.2 µM; in test [3] (Table 2, membranes of HEK293F cells, [3H]RO7239181, read-out: Ki h-GABAA α2β2γ1), 0.033 µM; in test [3] (membranes of HEK293F cells, [3H]RO7239181 20-30 nM, mean of two determinations, read-out: Ki h-GABAA α2β2γ1), 0.033 µM. In test [3], the “γ2/γ1 Selectivity Ratio” value is recorded as 338.4. Besides, in test [3], the LogSel is 2.53.
